Data set [1] has as its system N-MYC. The experiment in a line: Western blot of N-MYC in SKNBE(2) cells. Format: cell-based, human. The note with it: 24 hrs treatment, 50 ng/ml IGF stimulation. The procedure: (§1) Cells were stimulated with 50 ng/ml IGF for 30 min and used for lysate preparation. Proteins were quantitated by the BCA protein assay (Pierce). Equal amounts of protein were resolved by polyacrylamide gels, transferred to nitrocellulose membrane and probed by Western blot with the following primary antibodies: p-AKT(Ser473), AKT (Cell Signaling Technologies), N-MYC, CyclinD1 and β-actin (Santa Cruz Biotechnology).

Data set [2] deals with PI3K. Put plainly: PI3K inhibition (isoform not given). The format is biochemical. The source says: Inhibitory activity can be determined routinely using known methods and also from commercial vendors offering this service for kinases and bromodomain proteins. […] In vivo, PI3K inhibition can be determined from target tissue biopsies by standard tissue processing to disrupt cells and then performing Western Blot analysis to determine the presence or absence of pAKT (substrate of PI3K) relative to a control sample. The activity of a compound of the invention as an inhibitor of a bromodomain-containing protein, such as a BET protein, such as BRD2, BRD3, BRD4, and/or BRDT, or an isoform or mutant thereof, may be determined in vitro, in vivo, or in a cell line. In vitro assays include assays that determine inhibition of bromodomain-containing proteins. Alternatively, inhibitor binding may be determined by running a competition experiment where a provided compound is incubated with a bromodomain-containing protein, such as a BET protein bound to known ligands, labeled or unlabeled. For example, bromodomain inhibition can be determined in vitro using Alpha Screen Technology (http://www.reactionbiology.com/webapps/site/NewsPDFs/Bromodomain%20Assay%20Platform%20for%20Drug%20Screening%20and%20Discovery.pdf). […]

Data set [3] relates to MYCN promoter region. The experiment in a line: Brd4 chromatin precipitation with quantitative PCR of MYCN promoter in SKNBE(2) cells. The note with it: 24 hours exposure. The format is cell-based, human. The procedure: MYCN amplified SKNBE(2) cells were exposed to inhibitors for 24 hours then chromatin was precipitated with Brd4 (rabbit polyclonal antibody) along with rabbit IgG as a negative control (IgG). Precipitated chromatin was analyzed for the MYCN gene (2 sites within the MYCN promoter region) by quantitative PCR and enrichment is shown as the percentage of total input DNA (FIG. 4). The negative control region primers amplify within a gene desert region approximately 1 Mb away from MYCN (MYC-N NR). Error bars represent±SEM of triplicate data. P<0.05 as compared to positive control (paired t-test).

Data set [4] deals with Cyclin D1 mRNA. Put plainly: Real-time PCR of Cyclin D1 mRNA in IMR32 cells. Format: cell-based. The note with it: IMR32, 5 μM, 24 hrs. For orientation: In qPCR the cycle at which signal appears reflects the starting amount.
Data set [5] relates to NB9464 cell line. The experiment in a line: Cytotoxicity / proliferation study, NB9464. The format is cell-based, murine. The note with it: Mus musculus.
Data set [6] relates to p-AKT(Ser473). The experiment in a line: Western blot of pAKT in SKNBE(2) cells. Format: cell-based, human. The note with it: 24 hrs treatment, 50 ng/ml IGF stimulation. The procedure: as §1
(A western blot detects proteins with antibodies after separation by electrophoresis.)

Data set [7] relates to MYCN-dependent MB patient derived xenograft (PDX) cell line. Put plainly: Cytotoxicity / proliferation study, PDX MB. Format: cell-based. The note with it: Homo sapiens.
The subject of data set [8] is B16 F10 luciferase melanoma cells. Put plainly: B16 melanoma mouse model of metastasis. The format is in vivo, mice. The note with it: 50 mg/kg every other day, 15 days. From the text: The luciferase signal was monitored every third day by injecting luciferin, until the lungs were harvested on day 15 (n=5). […] Lungs extracted from these animals are shown below the luciferase imaged pictures supporting the repression of tumor growth in Cmpd 28-treated mice.

In data set [9] the test system is N-myc (MYCN) mRNA. The experiment in a line: Real-time PCR of N-myc mRNA in IMR32 cells. Format: cell-based. The note with it: IMR32, 5 μM, 24 hrs.
The subject of data set [10] is NB9464 murine neuroblastoma tumor. Put plainly: NB9464 tumor growth in nude mice. Format: in vivo. The note with it: 50 mg/kg, 3 days a week for 1.5 weeks, intra-peritoneal.
Text: MYCN-overexpressing murine neuroblastoma cells (NB9464) were transplanted into nude mice, grown for 24 days and randomized into two groups.
For data set [11], the system named is SKNBE(2) neuroblastoma cell line. The experiment in a line: Cytotoxicity / proliferation study, SKNBE(2). The format is cell-based. The note with it: Homo sapiens, SKNBE2; SKNBE(2) cell line.
The target in data set [12] is BRD4 (Homo sapiens, UniProt O60885). The experiment in a line: BRD4 inhibition assay (region not specified). The format is binding.
Experimental: The activity of a compound of the invention as an inhibitor of a bromodomain-containing protein, such as a BET protein, such as BRD2, BRD3, BRD4, and/or BRDT, or an isoform or mutant thereof, may be determined in vitro, in vivo, or in a cell line. In vitro assays include assays that determine inhibition of bromodomain-containing proteins. Alternatively, inhibitor binding may be determined by running a competition experiment where a provided compound is incubated with a bromodomain-containing protein, such as a BET protein bound to known ligands, labeled or unlabeled. For example, bromodomain inhibition can be determined in vitro using Alpha Screen Technology (http://www.reactionbiology.com/webapps/site/NewsPDFs/Bromodomain%20Assay%20Platform%20for%20Drug%20Screening%20and%20Discovery.pdf). […] Bromodomain inhibition may also be predicted by in silico modeling as described below in the Examples.
Computational modeling was performed using the commercially available FlexX (http://www.biosolveit.de/FlexX/download/flexx_brochure.pdf) software tools. […] It should be noted that the more negative the number or value of the docking score is, the stronger is the predicted binding energy at the BRD4 site that recognizes the acetyl lysine of chromatin.
The test system of data set [13] is Panc02 tumor cells. Put plainly: Orthotopic Panc02 pancreatic model of spontaneous metastasis. Format: in vivo, mice. The note with it: 50 mg/kg three times a week. The procedure: Panc02 (1×10^6) tumor cells were injected into the pancreas of WT mice (n=18). After 20 days, mice were randomized into two groups. One group was treated with DMSO (control) and the other group was treated with 50 mg/kg of SF2523, three times a week. Tumors were removed 35 days after tumor implantation. Values are mean±SEM (n=8 in each gp; P<0.01; pair wise two-sided Student's t test). […] Values are mean±SEM (n=7; P<0.01; pair wise two-sided Student's t test). The data are representative of three independent experiments performed.

As for `Cc1sc2c(c1C)C(c1ccc(Cl)cc1)=N[C@@H](CC(=O)OC(C)(C)C)c1nnc(C)n1-2` [JQ-1], the “MYCN quantity by Western blot” value in data set [1] is listed as “inhibited only MYCN quantities”. Moreover, in data set [2], the PI3K inhibition entry is on record as “does not inhibit PI3K”. Further, in data set [3], the “MYCN expression (Brd4-precipitated chromatin, MYCN promoter PCR)” value is listed as “significantly repressed MYCN expression”.

As to `O=c1cc(N2CCOCC2)oc2c(-c3ccc4c(c3)OCCO4)csc12` [Cmpd 28], the “Cyclin D1 mRNA expression” value in data set [4] is recorded as “reducing mRNA expression”. Also, the IC50 (commonly the midpoint of a concentration-inhibition curve) in [5] stood at 8.7 µM; in data set [7], 3.6 µM; in data set [11] it was 7.6 µM. Moreover, the “pAKT level by Western blot” value in data set [6] is “decreased MYCN and pAKT”. Also, the “MYCN quantity by Western blot” value in data set [1] is “decreased MYCN”. Besides, in [8], the “luciferase bioimaging of cancer cells” value is recorded as “little evidence of the presence of cancer cells”. Also, the “reduction in metastatic nodules” value in data set [8] (lungs) was 60%. Also, in [9], the “MYCN mRNA expression” value was “inhibits MYCN expression”. For the same compound, in data set [10], the “tolerability (body weight)” value is recorded as “well tolerated”. The “tumor growth compared to vehicle” value in data set [10] is listed as “significantly blocked tumor growth”. For the same compound, the “MYCN expression (Brd4-precipitated chromatin, MYCN promoter PCR)” value in [3] was “significantly repressed MYCN expression”. Also, in data set [12], the BRD4 inhibition entry is “showed activity against BRD4 regions 1 and 2”. Besides, the spontaneous metastasis entry in data set [13] was “blocks spontaneous metastasis”.

The record behind these values is patent US10308662B2, “Thienopyranones as kinase and epigenetic inhibitors” (SignalRx Pharmaceuticals, Inc., priority 2014, dated 2019).
